Results reported in EP0298820A1, “Peptide derivatives and their therapeutic application” (INSTITUT NATIONAL DE LA SANTE ET DE LA RECHERCHE MEDICALE …, priority 1987, dated 1989).

System: tumeur M₄
Experiment: Inhibition of development of lung metastases (M4 tumour cells injected i.v. with peptide)
Assay type: in vivo, souris C57BL/6
Conditions: injected in tail vein with 10⁵ M₄ cells, lung colonies counted after 15 days, PBS control 117,5 ± 14,4
Description: On a utilisé la tumeur M₄, une sous-lignée obtenue par sélection d'un sarcome induit par le benzopyrène chez la souris C57BL/6 (Mantovani Int. J. Cancer, 22, 741, 1978).
Les cellules M₄ ont été désagrégées avec de la DNAse et de la collagènase pendant 30 minutes à 37°C. On a lavé les cellules deux fois avec du PBS et on les a remis en suspension dans le même tampon à la concentration de […]. On a injecté lentement dans le veine de la queue de souris C57BL/6 0,2 ml de PBS contenant différentes concentrations de peptide et 10⁵ cellules M₄/souris.
Au bout de 15 jours on a tué les souris et excisé les poumons, et on les a fixés avec une solution de Bouin. On a compté visuellement les colonies. Les résultats obtenus avec le peptide KQRGDF sont donnés dans le tableau suivant.

Which Nombre de colonie (0,75 mg/souris) does the source give for “H-KQRGDF-OH [KQRGDF, H-Lys-Gln-Arg-Gly-Asp-Phe-OH]” here?
The Nombre de colonie was 25,3 ± 9,4.

And the Nombre de colonie (1,5 mg/souris)?
Its Nombre de colonie is 0,2.

What about the Nombre de colonie (3,0 mg/souris) of the same substance?
The Nombre de colonie was 0.
